These are literature values, as cited in publication PMC10837402, “Unnatural amino acid substitutions to improve in vivo stability and tumor uptake of ^68Ga-labeled GRPR-targeted TacBOMB2 derivatives for cancer imaging with positron emission tomography” (EJNMMI Radiopharmacy and Chemistry, 2024).

Data set [1] addresses T1, GRPR (Homo sapiens, UniProt P30550).
T1 construct: generated using GRPR-expressing PC-3 cells; endogenous in cells; host or cells: PC-3 cells
The following applies: vs Ac-Bombesin(7–14); ref Horwell et al. 1996; cited from earlier work.

For data set [2], the target named is T1, GRPR. Details: method as in Wang et al. [2023]. The following applies: previously reported; ref Wang et al. [2023]; read-out: GRPR binding affinity (Ki); cited from earlier work.
Data set [3] concerns GRPR-expressing PC-3 tumor xenografts. Particulars: mouse, in vivo, 1 h; cited from earlier work.

T1 sequence (P30550 whole entry): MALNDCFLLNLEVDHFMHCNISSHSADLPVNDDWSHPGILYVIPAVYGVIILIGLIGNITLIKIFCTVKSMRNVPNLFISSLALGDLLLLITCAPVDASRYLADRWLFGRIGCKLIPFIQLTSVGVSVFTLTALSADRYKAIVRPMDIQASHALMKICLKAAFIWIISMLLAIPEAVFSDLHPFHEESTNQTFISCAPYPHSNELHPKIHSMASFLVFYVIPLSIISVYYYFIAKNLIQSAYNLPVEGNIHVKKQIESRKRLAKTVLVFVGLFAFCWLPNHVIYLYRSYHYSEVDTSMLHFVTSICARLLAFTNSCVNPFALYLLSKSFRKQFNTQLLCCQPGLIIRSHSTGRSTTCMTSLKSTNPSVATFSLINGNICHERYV

Ac-[NMe-Gly^11]Bombesin(7–14): at GRPR [1], the “Reduction in GRPR binding affinity caused by NMe-Gly^11 substitution” value is recorded as above 30 fold.

Usually Ki stands for the dissociation constant of the complex between target and ligand, obtained from inhibition or displacement. As for “^68Ga-DOTA-Pip-D-Phe^6-Gln^7-Trp^8-Ala^9-Val^10-Gly^11-His^12-Leu^13-Thz^14-NH2 [[^68Ga]Ga-TacBOMB2]”, the Ki at GRPR [2] is 7.62 nM. Moreover, in data set [3], the “Uptake in PC-3 tumor” value is recorded as 5.95 %ID/g, the “Uptake in adrenal glands” value is listed as 0.52 ± 0.11 %ID/g, the Uptake in blood is 0.39 ± 0.12 %ID/g and the Uptake in bone was 0.26 ± 0.11 %ID/g. Besides, in data set [3], the Uptake in brain is listed as 0.03 ± 0.01 %ID/g, the Uptake in fat is reported as 0.10 ± 0.03 %ID/g, the Uptake in heart is listed as 0.14 ± 0.02 %ID/g and the Uptake in kidneys is recorded as 2.43 ± 0.16 %ID/g. For the same substance, in data set [3], the Uptake in liver is reported as 0.29 ± 0.13 %ID/g, the Uptake in lungs is on record as 0.39 ± 0.10 %ID/g, the Uptake in muscle was 0.13 ± 0.08 %ID/g and the Uptake in pancreas is on record as 1.30 ± 0.14 %ID/g. Also, in data set [3], the “Uptake in small intestine” value was 0.60 ± 0.12 %ID/g, the Uptake in spleen was 0.27 ± 0.10 %ID/g, the Uptake in stomach is recorded as 0.54 ± 0.27 %ID/g and the Uptake in testes was 0.16 ± 0.05 %ID/g.
